Measurements reported in patent US9072707B2, “Use of C-terminal domain of IGFBP-5 comprising heparin-binding domain as an angiogenesis inhibitor” (RESEARCH & BUSINESS FOUNDATION SUNGKYUNKWAN UNIVERSITY, priority 2012, dated 2015).

B1: C-terminal domain: domain consisting of amino acids 169-252 of IGFBP-5 (SEQ ID NO: 1), stably expressed in 2774 cells (C/2774) (protein)
chain: QGPCRRHMEASLQELKASPRMVPRAVYLPNCDRKGFYKRKQCKPSRGRKRGICWCVDKYGMKLPGMEYVDGDFQCHTFDSSNVE

Tests used:
VEGF = assay: RT-PCR analysis of VEGF gene expression in 2774 ovarian cancer cell line; type: cell-based
Protocol: (§1) A plasmid (pSecTaq2/Hygro A, Invitrogen) (2 μg/dish (100 mm dish)) that expresses the C-terminal domain (SEQ ID NO: 1), L-domain (SEQ ID NO: 2) and N-terminal domain (SEQ ID NO: 3) of IGFBP-5 was transfected into the 2774 ovarian cancer cell line using Lipofectamine 2000 (Invitrogen). The transfection was performed according to the method provided by Invitrogen.
(§2) At 24 hours after transfection, viable colonies were collected in DMEM (+10% FBS+penicillin and hygromycin) containing hygromycin (500 μg/ml), and then positive colonies were selected by a Western blot method using Myc antibody.
(§3) The […] cell line was treated overnight with various concentrations or 60 μg/ml of the peptides synthesized in Example 4, after which the cell line was additionally treated with fresh peptides for 7 hours. The cell line was treated for a total of 24 hours. Then, the cells were lysed with Trizol (Invitrogen), and RNA was isolated from the cells. cDNA was synthesized from the isolated […] using oligo dT and superscriptase III (Invitrogen), and then subjected to RT-PCR.
(§4) However, the PCR reaction using TNF-a primers was performed for 35 cycles at an annealing temperature of 57° C.

IL-6 = assay: RT-PCR analysis of IL-6 gene expression in 2774 ovarian cancer cell line; type: cell-based
Protocol: as §1, §2, §3, §4

TNF-α = assay: RT-PCR analysis of TNF-alpha gene expression in 2774 ovarian cancer cell line; type: cell-based
Protocol: as §1, §2, §3, §4

HUVEC [1] = assay: Tube formation assay on Matrigel; type: cell-based, human; settings: 60 μg/ml peptide, 24 h pretreatment, 6 h on Matrigel; FIG. 6a
Protocol: In order to examine the influence of each domain peptide of IGFBP-5 on the tube formation of HUVEC cells, HUVEC cells were plated onto a 6-well plate at a density of 1×10^5 cells/well, and then treated with 60 μg/ml of each of the peptides for 24 hours.
Before a tube formation assay, growth factor-reduced Matrigel (BD Bioscience) diluted to 1:2 with PBS was added to a 24-well plate in an amount of 300 μl/well, and then solidified at 37° C. for 1 hour. The HUVEC cells treated with each of the peptides for 24 hours were trypsinized, suspended in 300 μl of EGM medium (diluted to 1:3 with EBM medium) and treated with 60 μg/ml of a fresh peptide, and then the cells were incubated on the prepared Matrigel for 6 hours.

HUVEC [2] = assay: Migration (scratch) assay; type: cell-based, human; settings: 60 μg/ml peptide, 36 h pretreatment, overnight, FIG. 6b
Protocol: In order to examine the influence of each domain peptide of IGFBP-5 on the migration of HUVEC cells, HUVEC cells were seeded onto a 12-well plate at a density of 1×10^5 cells/well, and then treated with 60 μg/ml of each of the peptides for 36 hours. Specifically, the cells were treated with each of the peptides for 7 hours, and then treated overnight with a fresh peptide.
The plate was scratched with a 200-μl micropipette tip, and treated overnight with 60 μg/ml of a fresh peptide, after which the migration of the cells was observed. For this purpose, the cells were photographed under a microscope at 0 hour and the overnight time point. In addition, for a control group, cells were treated with PBS.

2774-GFP cell line = assay: Ovarian cancer animal model, intraperitoneal 2774-GFP cells; type: in vivo, nude mouse; settings: 30 mg/kg intraperitoneally 8 times at intervals of 2-3 days, FIG. 7
Protocol: Each of 5-week-old nude mouse was intraperitoneally injected with 5×10^6 2774 cells that express GFP.
In this experiment, 8 mice were injected with the BP5-C peptide, and for a control group, 7 mice were injected with PBS.

[3] = test system: 2774 ovarian cancer cell line; assay: Subcutaneous tumor growth of 2774 cell lines expressing IGFBP-5 truncation mutants; type: in vivo, nude mouse; settings: nude mice injected subcutaneously with 2774 cells expressing the domain, compared to Vec/2774; FIGS. 2a, 2b
Protocol: A 5-week-old nude mouse subcutaneously injected with 1×10^6 cells that express the truncation mutant of IGFBP-5, and then the tumor volume of the mice was measured at intervals of 3-4 days. In this experiment, two mice were used for each of the cell lines, and each of the cell lines was injected into two points of each mouse. This experiment was repeated three times.

[4] = 2774 cells treated with 60 μg/ml of each peptide, FIG. 5A
[5] = 2774 cells treated with peptide at 30, 60 and 100 μg/ml, FIG. 3A
[6] = 2774 cell line stably expressing the domain, FIG. 1B

Molecule | expression of VEGF gene (VEGF; [4]) | expression of IL-6 gene (IL-6; [4]) | expression of TNF-α gene (TNF-α; [4]) | tube formation of HUVEC (HUVEC [1]) | migration of HUVEC (HUVEC [2]) | expression of VEGF gene (VEGF; [5]) | expression of IL-6 gene (IL-6; [5]) | expression of TNF-α gene (TNF-α; [5]) | tumor volume of collected tumors (2774-GFP cell line; compared to animals injected with PBS) | tumor growth (2774-GFP cell line; compared to control group (PBS)) | expression of VEGF gene (VEGF; [6]) | expression of IL-6 gene (IL-6; [6]) | expression of TNF-a gene (TNF-α; [6]) | growth of cancer (tumor volume) [3]
BP2-C: C-terminal domain peptide of IGFBP-2 including IGF-1-binding domain, amino acids 228-245, KHGLYNLKQCKMSLNGQR (SEQ ID NO: 7) [reference compound] | no effect | no effect | no effect | no influence | did not inhibit |  |  |  |  |  |  |  |  | 
BP2-HBD: heparin-binding domain derived from IGFBP-2, amino acids 171-188, KHHLGLEEPKKLRPPPAR (SEQ ID NO: 6) [reference compound] | no effect | no effect | no effect | no influence | did not inhibit |  |  |  |  |  |  |  |  | 
BP5-C: amino acids 201-218 of IGFBP-5, RKGFYKRKQCKPSRGRKR (SEQ ID NO: 4) | inhibited | inhibited | inhibited | inhibited | inhibited | inhibited | inhibited | inhibited | significantly reduced | significantly inhibited |  |  |  | 
BP5-mut: IGFBP-5 201-218 with G203A and Q209A mutations, RKAFYKRKACKPSRGRKR (SEQ ID NO: 5) | inhibited | inhibited | inhibited | inhibited | inhibited |  |  |  |  |  |  |  |  | 
B1 |  |  |  |  |  |  |  |  |  |  | significantly inhibited | significantly inhibited | significantly inhibited | significantly inhibited
